We go through two compounds from article PMC11570809, “Novel N-phenyl-2-(aniline) benzamide hydrochloride salt development for colon cancer therapy” (Frontiers in Pharmacology, 2024).

A word on the solubility: it is how much of the substance goes into solution per volume. Broadly, the IC50 is the concentration needed to halve the response being measured.

Structures can show the parent of a compound that is named as a salt. Where two headings read alike, the source gives them in different places.

The nature of data set [1]: Thermodynamic solubility in water (HPLC). It counts as physicochemical. Particulars: for Solubility, equivalent molar concentration: water. The protocol: The thermodynamic solubility of N53·HCl in water was determined by high-performance liquid chromatography (Waterage, Alliance HPLC E2695, United States). The HPLC mobile phases were water (0.1% formic acid) and methanol separated by gradient chromatography at 0.5 mL/min. The chromatographic conditions were followed. Mobile phase: methanol: H2O = 10:90; 15 min; wavelength: 254 nm; temperature: 25°C. N53 and N53·HCl were dissolved in methanol to form a gradient concentration standard solution (0.32, 1.6, 8, 40, 200 and 1,000 μg/mL). The standard solutions were scanned at 254 nm and the absorption area was recorded against the concentration curve. Saturated solutions of the compounds were prepared by magnetic stirring at 37°C for 4 h in deionized water in small volumes and the solid compounds were removed using Millipore 0.45 μm filters. The saturated solution was then scanned at 254 nm. The thermodynamic solubility in water was calculated from the absorption area and curve.

In another data set the target is T1, Topo I (Bos taurus, UniProt F1MN93).
T1 construct: purchased Takara Biotechnology, Dalian, China
T1 sequence (F1MN93 1-767): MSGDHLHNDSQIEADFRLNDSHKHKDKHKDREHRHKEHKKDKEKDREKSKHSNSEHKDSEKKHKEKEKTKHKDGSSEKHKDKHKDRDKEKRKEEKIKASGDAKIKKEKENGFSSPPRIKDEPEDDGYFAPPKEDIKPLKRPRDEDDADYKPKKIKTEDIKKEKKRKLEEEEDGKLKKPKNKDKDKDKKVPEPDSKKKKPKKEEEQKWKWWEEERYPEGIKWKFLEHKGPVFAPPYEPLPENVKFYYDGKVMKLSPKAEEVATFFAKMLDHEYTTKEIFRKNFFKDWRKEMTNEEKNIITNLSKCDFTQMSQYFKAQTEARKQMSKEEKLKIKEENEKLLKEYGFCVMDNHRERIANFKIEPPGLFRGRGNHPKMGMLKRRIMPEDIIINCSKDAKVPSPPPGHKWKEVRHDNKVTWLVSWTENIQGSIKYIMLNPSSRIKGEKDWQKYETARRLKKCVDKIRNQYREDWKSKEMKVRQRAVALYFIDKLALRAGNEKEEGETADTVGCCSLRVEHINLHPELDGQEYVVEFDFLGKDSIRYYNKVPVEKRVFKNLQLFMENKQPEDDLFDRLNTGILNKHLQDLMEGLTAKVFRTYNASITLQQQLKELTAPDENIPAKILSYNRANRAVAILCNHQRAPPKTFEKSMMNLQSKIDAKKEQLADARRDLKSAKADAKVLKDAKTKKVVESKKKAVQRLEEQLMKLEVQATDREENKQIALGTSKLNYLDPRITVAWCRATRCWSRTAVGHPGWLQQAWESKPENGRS
The experiment in a line: Topo I-mediated DNA relaxation assay. In kind it is biochemical. The following applies: relaxation of supercoiled pBR322. The protocol:
In brief, 2 μL Topo I Assay Buffer, 2 μL 0.1% BSA solution, 1 μL 1 U/μL Topo I solution, 0.2 μL test compound solution, and 0.5 μL DNA solution (0.25 μg) were added orderly with the corresponding volume of ultrapure water to make the above system volume 20 μL (Takara Biotechnology, Dalian, China). The above system was incubated at 37°C, the incubation continued for 45 min, and then 10 μL of a mixture of equal phenol and chloroform organic solvent was added for extraction to terminate the reaction. The aqueous phase was separated by centrifugation, the corresponding volume of 6 × DNA loading buffer was added, and then 0.8% agarose gel and 1 × TAE electrophoresis solution were used for electrophoresis at 110 V for 1 h. After electrophoresis, the gel was placed in a 0.5 μg/mL of ethidium bromide (EB) solution for 30 min, then recorded and photographed at 302 nm wavelength.

The subject of the next data set is SK-Hep-1. The experiment in a line: MTT anti-proliferation assay, SK-Hep-1. The following applies: read-out: IC50 ± SD SK-Hep-1. In kind it is cell-based, human.
The next data set has as its system HuH7. Kind of data set: MTT anti-proliferation assay, HuH7. The following applies: 72 h, read-out: IC50 ± SD HuH7. It counts as cell-based, human.
For another data set, the system named is HCT116. Kind of data set: MTT anti-proliferation assay, HCT116. The following applies: 72 h, read-out: IC50 ± SD HCT116. It counts as cell-based, human. The protocol:
The anti-proliferation activities of synthesized compounds to colon cancer cell lines were measured by the MTT (3-[4,5-dimethyl-2-thiazolyl]-2,5-diphenyl-2H-tet razolium bromide) assay. First, the cell suspension was prepared by trypsin and the corresponding medium, cells were diluted to 5 × 10^5 cells/mL, and 96-well plates were added 200 μL per well. The plates were maintained at 37°C in a humidified atmosphere containing 5% CO2 overnight. Then compounds at gradient concentrations were added to cells in the logarithmic phase to make the final concentration at 0.5, 1, 2, 4, 8, 16, and 32 μM. The cells were treated with tested compounds for 72 h, and the growth curve assay was tested in 24 h. When the time was up, 20 μL of MTT solution (5 mg/mL in PBS) was added into each well to incubate for 4 h at 37°C. Then the supernatant liquid was removed, 150 μL DMSO was added into every well to dissolve formazan crystals and read the absorbance at 570 nm by Spark microplate spectrophotometer (Tecan, Swiss). The IC50 values were analyzed by IBM SPASS Statistics 25.0 software. The data are all derived from three parallel experiments (n = 3) and expressed as mean ± SD.
Background: Tetrazolium dyes change colour on reduction, which living cells bring about.

The test system of a further data set is HT29 xenograft. Kind of data set: HT29 nude xenograft model. In kind it is in vivo, BALB/c nude mice. Particulars: 15 mg/kg once a day p.o., 13 days. The protocol: HT29 cells in the logarithmic growth phase were digested to a cell density of 8 × 10^6/mL, and 100 μL suspension of HT29 was injected subcutaneously in the right axilla of nude mice. The dose selection is based on previously described ([Xiaoling Hu et al., 2022]). When the average tumor volume reached about 300 mm^3, they were randomly divided into 3 groups: N53·HCl (15 mg/kg once a day, p.o.), N53 (15 mg/kg once a day, p.o.), control group. 15 mg/kg N53 and N53·HCl dissolved in normal saline containing 2.5% polyoxyethylene castor oil and 2.5% DMSO were administrated by oral medications, while the Control group was given an equal volume of blank solvent. The tumor volume was measured with a vernier caliper every other days and calculated the tumor volume according to Equation 1. After 13 days of treatment, the mice were sacrificed, the tumors were removed, the tumor weight was weighed, and the tumor growth inhibition rate was calculated. The calculation formula of tumor growth inhibition rate (TGI%) was calculated using Equation 2. The corresponding equations were as follows: Tumor volume mm^3=W^2×L/2 (1) TGI%=1−T−T0 / C−C0×100% (2)
In equations, W and L represent the width and length of the tumor respectively, T and C represent the average volume of the experiment group and control group at the end of the experiment. T0 and C0 represent […].

On to `Cc1c(Cl)cccc1Nc1ccccc1C(=O)Nc1ccc(N2CCN(C)CC2)cc1` [N53·HCl, 4-(4-(2-((3-chloro-2-methylphenyl)amino)ben-zamido)phenyl)-1-methylpiperazin-1-ium], for which, in data set [1] (deionized water, thermodynamic, 37°C, 4 h), the solubility at 4 h was 540 µg/mL. This compound also returned a Water solubility in data set [1] (thermodynamic, deionized water, 37°C, 4 h) of 540 µg/mL. Besides, the “Solubility, equivalent molar concentration” value in data set [1] was determined as 1150 µM. Moreover, on Topo I, the “Inhibition rate (%) of Topo I (100 μM)” value amounted to 55.1%. Moreover, the IC50 is 8.18 µM in the data set with SK-Hep-1 (Homo sapiens, SK-HEP1, 72 h); 11.7 ± 0.75 µM with HuH7; 10.9 ± 1.3 µM in the data set on HCT116. For the same compound, the “Body weight versus control group” value in the data set with HT29 xenograft is reported as “no significant difference in body weight”. Further, the “Tumor inhibition rate (TGI)” value with HT29 xenograft was 53.7%.

As to `Cc1c(Cl)cccc1Nc1ccccc1C(=O)Nc1ccc(N2CCN(C)CC2)cc1` [Compound N53, 2-((3-chloro-2-methylphenyl)amino)-N-(4-(4-methylp-iperazin-1-yl)phenyl)benzamide], the “Solubility, equivalent molar concentration” value in data set [1] is less than 0.74 µM. Besides, on Topo I, the “Inhibition rate (%) of Topo I (100 μM)” value was 11.7%. Further, the IC50 was found to be 5.66 ± 0.47 µM in the data set on SK-Hep-1 (72 h), 3.67 ± 0.38 µM with HuH7 and 3.89 ± 0.41 µM with HCT116. Moreover, the “Body weight versus control group” value with HT29 xenograft is given as “no significant difference in body weight”. In the data set on HT29 xenograft, the “Tumor inhibition rate (TGI)” value was 34.7%.
